Test results taken from PubChem BioAssay AID1963451 (Molecular Pharmacology Branch, DTP, NCI, 2024).

Test system: 521955-158-R6-J3-PDC complex spheroid growth, % test/control
Test: Anticancer human tumor 521955-158-R6-J3-PDC patient-derived pancreatic carcinoma cell line growth inhibition [Asc]
Settings: for IC50: curve of first compound; for viability, T/C: stronger effect = lower value
In short: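 Tumor cells were grown as multicellular spheroids with stromal HUVEC and mesenchymal stem cells and treated singly or in combination. Concentrations fell in half-log steps from the clinical Cmax, or from 10 microM where none was known.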

[1] = second compound 0.00316 µM, first compound 0.0316 µM
[2] = second compound 0.00316 µM, first compound 0.1 µM
[3] = second compound 0.01 µM, first compound 0.0316 µM
[4] = second compound 0.01 µM, first compound 0.1 µM
[5] = second compound 0.0316 µM, first compound 0.0316 µM
[6] = second compound 0.0316 µM, first compound 0.1 µM
[7] = second compound 0.1 µM, first compound 0.0316 µM
[8] = second compound 0.1 µM, first compound 0.1 µM
[9] = second compound 0.316 µM, first compound 0.0316 µM
[10] = second compound 0.316 µM, first compound 0.1 µM
[11] = second compound 1 µM, first compound 0.0316 µM
[12] = second compound 1 µM, first compound 0.1 µM
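Note: spheroids exposed to compounds for 7 days.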
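Throughout, for viability, T/C: 100% = DMSO vehicle control wells.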

`Cc1nc(N2CCC3(CC2)COC(C)C3N)c(CO)nc1Sc1ccnc(N)c1Cl` (stereo unspecified) + CCN1C(C(=O)NC23CCC(C(=O)O)(CC2)CC3)C(c2cccc(Cl)c2F)C2(C(=O)Nc3cc(Cl)ccc32)C12CCCCC2 showed an IC50 (second compound 0.00949 µM) greater than 3 µM, an IC50 (second compound 0.03 µM) greater than 3 µM and an IC50 (second compound 0.0949 µM) greater than 3 µM. It also gave an IC50 (second compound 0.3 µM) greater than 3 µM, an IC50 (second compound 0.949 µM) greater than 3 µM and an IC50 (second compound 3 µM) greater than 3 µM. It also gave a viability, T/C (second compound 0.00949 µM, first compound 0.00949 µM) of 128%, a viability, T/C (second compound 0.00949 µM, first compound 0.03 µM) of 107% and a viability, T/C (second compound 0.00949 µM, first compound 0.0949 µM) of 92.8%. The viability, T/C (second compound 0.00949 µM, first compound 0.3 µM) was 93.8%, the viability, T/C (second compound 0.00949 µM, first compound 0.949 µM) was 77.8% and the viability, T/C (second compound 0.00949 µM, first compound 3 µM) was 74.5%. It also gave a viability, T/C (second compound 0.03 µM, first compound 0.00949 µM) of 109%, a viability, T/C (second compound 0.03 µM, first compound 0.03 µM) of 104% and a viability, T/C (second compound 0.03 µM, first compound 0.0949 µM) of 91%. The viability, T/C (second compound 0.03 µM, first compound 0.3 µM) was 106%, the viability, T/C (second compound 0.03 µM, first compound 0.949 µM) was 93.8% and the viability, T/C (second compound 0.03 µM, first compound 3 µM) was 85.8%. For the same compound, the viability, T/C (second compound 0.0949 µM, first compound 0.00949 µM) was 115%, the viability, T/C (second compound 0.0949 µM, first compound 0.03 µM) was 113% and the viability, T/C (second compound 0.0949 µM, first compound 0.0949 µM) was 106%. The viability, T/C (second compound 0.0949 µM, first compound 0.3 µM) was 82.6%, the viability, T/C (second compound 0.0949 µM, first compound 0.949 µM) was 82.2% and the viability, T/C (second compound 0.0949 µM, first compound 3 µM) was 79.8%. It also gave a viability, T/C (second compound 0.3 µM, first compound 0.00949 µM) of 112%, a viability, T/C (second compound 0.3 µM, first compound 0.03 µM) of 82.6% and a viability, T/C (second compound 0.3 µM, first compound 0.0949 µM) of 113%. It also gave a viability, T/C (second compound 0.3 µM, first compound 0.3 µM) of 95%, a viability, T/C (second compound 0.3 µM, first compound 0.949 µM) of 83% and a viability, T/C (second compound 0.3 µM, first compound 3 µM) of 92.6%. The viability, T/C (second compound 0.949 µM, first compound 0.00949 µM) was 133%, the viability, T/C (second compound 0.949 µM, first compound 0.03 µM) was 104% and the viability, T/C (second compound 0.949 µM, first compound 0.0949 µM) was 93.5%. It also gave a viability, T/C (second compound 0.949 µM, first compound 0.3 µM) of 92.4%, a viability, T/C (second compound 0.949 µM, first compound 0.949 µM) of 82.2% and a viability, T/C (second compound 0.949 µM, first compound 3 µM) of 83.1%. The viability, T/C (second compound 3 µM, first compound 0.00949 µM) was 114%, the viability, T/C (second compound 3 µM, first compound 0.03 µM) was 90.2% and the viability, T/C (second compound 3 µM, first compound 0.0949 µM) was 104%. It also gave a viability, T/C (second compound 3 µM, first compound 0.3 µM) of 84.1%, a viability, T/C (second compound 3 µM, first compound 0.949 µM) of 87.5% and a viability, T/C (second compound 3 µM, first compound 3 µM) of 72.3%.

In the case of `Cn1ncnc1[C@H]1c2n[nH]c(=O)c3cc(F)cc(c23)N[C@@H]1c1ccc(F)cc1` + CNC(C)C(=O)NC1CN(S(=O)(=O)c2cccc(S(=O)(=O)N3CCC4CCC(C(=O)NC(c5ccccc5)c5ccccc5)N4C(=O)C(NC(=O)C(C)NC)C3)c2)CCC2CCC(C(=O)NC(c3ccccc3)c3ccccc3)N2C1=O, the IC50 (second compound 0.00316 µM) is reported as greater than 0.1 µM, the IC50 (second compound 0.01 µM) is reported as greater than 0.1 µM and the IC50 (second compound 0.0316 µM) is reported as greater than 0.1 µM. It also gave an IC50 (second compound 0.1 µM) greater than 0.1 µM, an IC50 (second compound 0.316 µM) greater than 0.1 µM and an IC50 (second compound 1 µM) greater than 0.1 µM. The viability, T/C (second compound 0.00316 µM, first compound 0.000316 µM) was 188%, the viability, T/C (second compound 0.00316 µM, first compound 0.001 µM) was 151% and the viability, T/C (second compound 0.00316 µM, first compound 0.00316 µM) was 151%. The viability, T/C (second compound 0.00316 µM, first compound 0.01 µM) was 159%, the viability, T/C [1] was 163% and the viability, T/C [2] was 140%. It also gave a viability, T/C (second compound 0.01 µM, first compound 0.000316 µM) of 154%, a viability, T/C (second compound 0.01 µM, first compound 0.001 µM) of 171% and a viability, T/C (second compound 0.01 µM, first compound 0.00316 µM) of 142%. It also gave a viability, T/C (second compound 0.01 µM, first compound 0.01 µM) of 146%, a viability, T/C [3] of 153% and a viability, T/C [4] of 161%. The viability, T/C (second compound 0.0316 µM, first compound 0.000316 µM) was 96.4%, the viability, T/C (second compound 0.0316 µM, first compound 0.001 µM) was 79.9% and the viability, T/C (second compound 0.0316 µM, first compound 0.00316 µM) was 93.6%. It also gave a viability, T/C (second compound 0.0316 µM, first compound 0.01 µM) of 74.6%, a viability, T/C [5] of 76.9% and a viability, T/C [6] of 92.1%. It also gave a viability, T/C (second compound 0.1 µM, first compound 0.000316 µM) of 93.2%, a viability, T/C (second compound 0.1 µM, first compound 0.001 µM) of 79.2% and a viability, T/C (second compound 0.1 µM, first compound 0.00316 µM) of 85.6%. The viability, T/C (second compound 0.1 µM, first compound 0.01 µM) was 83%, the viability, T/C [7] was 87.4% and the viability, T/C [8] was 78.2%. It also gave a viability, T/C (second compound 0.316 µM, first compound 0.000316 µM) of 84.8%, a viability, T/C (second compound 0.316 µM, first compound 0.001 µM) of 72.6% and a viability, T/C (second compound 0.316 µM, first compound 0.00316 µM) of 83.3%. The viability, T/C (second compound 0.316 µM, first compound 0.01 µM) was 87.1%, the viability, T/C [9] was 89.3% and the viability, T/C [10] was 84.1%. The viability, T/C (second compound 1 µM, first compound 0.000316 µM) was 73.3%, the viability, T/C (second compound 1 µM, first compound 0.001 µM) was 74.9% and the viability, T/C (second compound 1 µM, first compound 0.00316 µM) was 83.9%. For the same compound, the viability, T/C (second compound 1 µM, first compound 0.01 µM) was 74.7%, the viability, T/C [11] was 87.8% and the viability, T/C [12] was 83.2%.

With `O=C(c1cc(Cc2n[nH]c(=O)c3ccccc23)ccc1F)N1CCN(C(=O)C2CC2)CC1` + CNC(C)C(=O)NC1CN(S(=O)(=O)c2cccc(S(=O)(=O)N3CCC4CCC(C(=O)NC(c5ccccc5)c5ccccc5)N4C(=O)C(NC(=O)C(C)NC)C3)c2)CCC2CCC(C(=O)NC(c3ccccc3)c3ccccc3)N2C1=O the IC50 (second compound 0.00316 µM) was greater than 10 µM, the IC50 (second compound 0.01 µM) was greater than 10 µM and the IC50 (second compound 0.0316 µM) was greater than 10 µM. For the same compound, the IC50 (second compound 0.1 µM) was greater than 10 µM, the IC50 (second compound 0.316 µM) was greater than 10 µM and the IC50 (second compound 1 µM) was greater than 10 µM. For the same compound, the viability, T/C [1] was 159%, the viability, T/C [2] was 159% and the viability, T/C (second compound 0.00316 µM, first compound 0.316 µM) was 153%. The viability, T/C (second compound 0.00316 µM, first compound 1 µM) was 151%, the viability, T/C (second compound 0.00316 µM, first compound 3.16 µM) was 155% and the viability, T/C (second compound 0.00316 µM, first compound 10 µM) was 160%. For the same compound, the viability, T/C [3] was 166%, the viability, T/C [4] was 133% and the viability, T/C (second compound 0.01 µM, first compound 0.316 µM) was 148%. It also gave a viability, T/C (second compound 0.01 µM, first compound 1 µM) of 153%, a viability, T/C (second compound 0.01 µM, first compound 3.16 µM) of 138% and a viability, T/C (second compound 0.01 µM, first compound 10 µM) of 119%. For the same compound, the viability, T/C [5] was 97.5%, the viability, T/C [6] was 87.8% and the viability, T/C (second compound 0.0316 µM, first compound 0.316 µM) was 87.7%. It also gave a viability, T/C (second compound 0.0316 µM, first compound 1 µM) of 74.3%, a viability, T/C (second compound 0.0316 µM, first compound 3.16 µM) of 132% and a viability, T/C (second compound 0.0316 µM, first compound 10 µM) of 84.9%. It also gave a viability, T/C [7] of 92%, a viability, T/C [8] of 81.5% and a viability, T/C (second compound 0.1 µM, first compound 0.316 µM) of 87.4%. The viability, T/C (second compound 0.1 µM, first compound 1 µM) was 85.8%, the viability, T/C (second compound 0.1 µM, first compound 3.16 µM) was 138% and the viability, T/C (second compound 0.1 µM, first compound 10 µM) was 82.3%. It also gave a viability, T/C [9] of 92.5%, a viability, T/C [10] of 81.5% and a viability, T/C (second compound 0.316 µM, first compound 0.316 µM) of 74.3%. The viability, T/C (second compound 0.316 µM, first compound 1 µM) was 72.7%, the viability, T/C (second compound 0.316 µM, first compound 3.16 µM) was 138% and the viability, T/C (second compound 0.316 µM, first compound 10 µM) was 81.7%. The viability, T/C [11] was 93.3%, the viability, T/C [12] was 85.4% and the viability, T/C (second compound 1 µM, first compound 0.316 µM) was 95.1%. It also gave a viability, T/C (second compound 1 µM, first compound 1 µM) of 89.3%, a viability, T/C (second compound 1 µM, first compound 3.16 µM) of 138% and a viability, T/C (second compound 1 µM, first compound 10 µM) of 80.8%.
